Each structure is given as a SMILES string.

Results on 29 compounds are retold here after US9045493B2, “Furo[3,2-b]- and thieno[3,2-b]pyridin derivatives” (Merck Patent GmbH, priority 2012, dated 2015).

In assay [1] the target is T1, TANK binding kinase (TBK1) (Homo sapiens, UniProt Q9UHD2).
T1 sequence (Q9UHD2 1-729): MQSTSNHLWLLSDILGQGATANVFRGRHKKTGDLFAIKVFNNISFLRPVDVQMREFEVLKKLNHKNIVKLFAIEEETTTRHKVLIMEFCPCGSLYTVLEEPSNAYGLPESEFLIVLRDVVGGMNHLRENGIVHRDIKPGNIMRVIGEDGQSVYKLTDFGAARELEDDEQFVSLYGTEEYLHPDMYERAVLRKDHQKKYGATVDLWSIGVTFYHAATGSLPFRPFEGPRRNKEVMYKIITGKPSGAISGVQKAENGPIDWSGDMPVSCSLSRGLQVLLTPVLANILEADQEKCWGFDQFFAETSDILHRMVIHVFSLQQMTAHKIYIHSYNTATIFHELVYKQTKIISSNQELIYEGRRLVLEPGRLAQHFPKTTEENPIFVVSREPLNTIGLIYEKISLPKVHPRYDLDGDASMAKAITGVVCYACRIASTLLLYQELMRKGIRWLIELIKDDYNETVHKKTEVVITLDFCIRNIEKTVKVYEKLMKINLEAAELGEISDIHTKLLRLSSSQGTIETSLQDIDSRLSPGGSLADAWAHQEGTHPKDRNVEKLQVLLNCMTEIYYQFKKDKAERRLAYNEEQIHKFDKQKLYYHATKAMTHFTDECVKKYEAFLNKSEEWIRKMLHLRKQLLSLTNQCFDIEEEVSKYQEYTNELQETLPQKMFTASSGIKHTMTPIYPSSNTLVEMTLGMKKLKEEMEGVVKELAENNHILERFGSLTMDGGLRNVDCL
The assay can be described thus: TBK1 enzyme assay (384-well Flashplate kinase assay). Type of assay: biochemical. Particulars: 10 μM ATP, 120 Min at 30° C. As for the experimental part:
The kinase assay is performed as 384-well Flashplate assay (for e.g. Topcount measurement.
0.6 nM TANK binding kinase (TBK1), 800 nM biotinylated MELK-derived peptide (Biotin-Ah-Ah-[…]) and 10 μM ATP (spiked with 0.25 μCi ^33P-ATP/well) are incubated in a total volume of 50 μl (10 mM MOPS, 10 mM Mg-acetat, 0.1 mM EGTA, 1 mM DTT, 0.02% Brij35, 0.1% BSA, pH 7.5) with or without test compound for 120 Min at 30° C. The reaction is stopped with 25 μl 200 mM EDTA. After 30 Min at room temperature the liquid is removed and each well washed thrice with 100 μl 0.9% sodium chloride solution. Nonspecific reaction is determined in presence of 100 nM Staurosporine. Radioactivity is measured in a Topcount (PerkinElmer). Results (e.g. IC50-values) are calculated with program tools provided by the IT-department (e.g. AssayExplorer, Symyx).

Another assay deals with T2, IKKε (Homo sapiens, UniProt Q14164).
T2 sequence (Q14164 1-716): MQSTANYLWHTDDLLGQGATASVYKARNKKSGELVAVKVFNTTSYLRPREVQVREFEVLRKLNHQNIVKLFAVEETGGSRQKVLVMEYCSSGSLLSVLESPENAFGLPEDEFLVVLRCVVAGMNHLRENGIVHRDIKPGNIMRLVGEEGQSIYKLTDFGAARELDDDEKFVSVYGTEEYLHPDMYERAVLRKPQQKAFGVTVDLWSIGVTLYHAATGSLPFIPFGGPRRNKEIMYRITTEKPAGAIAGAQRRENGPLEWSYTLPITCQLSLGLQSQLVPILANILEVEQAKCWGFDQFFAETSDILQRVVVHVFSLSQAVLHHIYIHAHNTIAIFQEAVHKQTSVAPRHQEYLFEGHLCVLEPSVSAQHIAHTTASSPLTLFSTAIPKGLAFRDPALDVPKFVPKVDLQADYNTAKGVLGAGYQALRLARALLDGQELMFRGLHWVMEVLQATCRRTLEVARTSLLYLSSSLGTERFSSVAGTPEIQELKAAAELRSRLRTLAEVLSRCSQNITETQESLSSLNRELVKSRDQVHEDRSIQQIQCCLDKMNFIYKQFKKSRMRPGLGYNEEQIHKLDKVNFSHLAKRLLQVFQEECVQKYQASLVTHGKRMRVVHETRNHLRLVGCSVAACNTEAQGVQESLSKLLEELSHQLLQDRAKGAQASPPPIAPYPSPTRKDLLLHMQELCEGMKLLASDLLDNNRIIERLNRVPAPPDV
As to the kind of experiment: IKKε kinase assay (384-well Flashplate). Type of assay: biochemical. Particulars: 10 μM ATP, 2 hours at 30° C.; read-out: IKKε enzyme assay IC50. As for the experimental part:
The kinase assay is performed either as 384-well Flashplate assay (for e.g. Topcount measurement).
1 nM IKKε, 800 nM biotinylated IκBα(19-42) peptide (Biotin-C6-C6-[…]) and 10 μM ATP (spiked with 0.3 μCi ^33P-ATP/well) are incubated in a total volume of 50 μl (10 mM MOPS, 10 mM Mg-acetat, 0.1 mM EGTA, 1 mM Dithiothreitol, 0.02% Brij35, 0.1% BSA, 0.1% BioStab, pH 7.5) with or without test compound for 2 hours at 30° C. The reaction is stopped with 25 μl 200 mM EDTA. After 30 Min at room temperature the liquid is removed and each well washed thrice with 100 μl 0.9% sodium chloride solution. […] Radioactivity is measured with Topcount (PerkinElmer). Results (e.g. IC50-values) are calculated with program tools provided by the IT-department (e.g. AssayExplorer, Symyx).

With `CN1CCN(C(=O)c2ccc(-c3cc4nccc(-c5ccc(OC6CCOC6)c(C#N)c5)c4o3)cc2)CC1` (stereo not shown) [Compound A42], the IC50 (in assay [1]; on IKKε) was below 300 nM in each case.

Turning to `CC(CO)(CCl)COc1ccc(-c2ccnc3cc(-c4ccc(C(=O)N5CCNCC5)cc4)oc23)cc1C#N` (stereo not shown) [Compound A59], the IC50 (in assay [1]; at IKKε) was below 300 nM in each case.

Turning to `COc1cc(-c2cc3nccc(-c4ccc(OC5CCOCC5)c(C#N)c4)c3o2)ccc1C(=O)N1CCNC(=O)CC1` [Compound A91], the IC50 (in assay [1]; at IKKε) was below 300 nM each time.

`N#Cc1cc(-c2ccnc3cc(-c4cnn(C5CCNCC5)c4)sc23)ccc1OC1CCOCC1` [Compound A96]: the IC50 (in assay [1]; at IKKε) was below 300 nM in each case.

In the case of `CC(=O)NCCNC(=O)c1ccc(-c2cc3nccc(-c4ccc(OC5CCOCC5)c(C#N)c4)c3o2)cc1` [Compound A80], the IC50 (in assay [1]; on IKKε) was below 300 nM each time.

`N#Cc1cc(-c2ccnc3cc(-c4ccc(C(=O)N5CCN(CCO)CC5)cc4)oc23)ccc1OC1CCOCC1` [Compound A84]: the IC50 (in assay [1]; at IKKε) was below 300 nM throughout.

With `COc1cc(-c2cc3nccc(-c4ccc(OCC5CC5)c(C#N)c4)c3o2)ccc1C(=O)N1CCNCC1` [Compound A50], the IC50 (in assay [1]; at IKKε) was below 300 nM in each case.

As for `N#Cc1cc(-c2ccnc3cc(-c4ccc(C(=O)NC5COc6ccccc6C5)cc4)oc23)ccc1OC1CCOCC1` (stereo not shown) [Compound A82], the IC50 (in assay [1]; at IKKε) was 300 to 3000 nM in each case.

For the compound `N#Cc1cc(-c2ccnc3cc(-c4ccc(C(N)=O)cc4)oc23)ccc1OC1CCOCC1` [Compound A18, 4-{7-[3-cyano-4-(tetrahydro-pyran-4-yloxy)-phenyl]-furo[3,2-b]pyridin-2-yl}-benzamide], the IC50 (in assay [1]; on IKKε) was 3000 to 50000 nM in each case.

With `CN1CCN(C(=O)c2ccc(-c3cc4nccc(-c5ccc(OCC6CCC6)c(C#N)c5)c4o3)cc2)CC1` [Compound A37], the IC50 (in assay [1]; on IKKε) was below 300 nM each time.

Turning to `COc1cc(-c2cc3nccc(-c4ccc(OC5CCOCC5)c(C#N)c4)c3o2)ccc1C(=O)N1CC[C@@H](O)C1` [Compound A98], the IC50 (in assay [1]; at IKKε) was below 300 nM each time.

As to `CCOC(=O)c1ccc(-c2cc3nccc(-c4ccc(OC5CCOCC5)c(C#N)c4)c3o2)cc1` [Compound A4, 4-{7-[3-cyano-4-(tetrahydro-pyran-4-yloxy)-phenyl]-furo[3,2-b]pyridin-2-yl}-benzoic acid ethyl ester], the half-maximal inhibitory concentration (IC50) (in assay [1]; on IKKε) was 300 to 3000 nM each time.

In the case of `COc1cc(-c2cc3nccc(-c4ccc(OC5CCOCC5)c(C#N)c4)c3s2)ccc1C(=O)N1CCNCC1` [Compound A52], the IC50 (in assay [1]; on IKKε) was below 300 nM each time.

For `COc1cc(-c2cc3nccc(-c4ccc(OC5CCOCC5)c(C#N)c4)c3o2)ccc1C(=O)NC1CCN(C)CC1` [Compound A99], the IC50 (in assay [1]; at IKKε) was below 300 nM each time.

Regarding `N#Cc1cc(-c2ccnc3cc(-c4ccc(C(=O)NCCN5CCC(F)(F)CC5)cc4)oc23)ccc1OC1CCOCC1` [Compound A83], the IC50 (in assay [1]; at IKKε) was below 300 nM throughout.

As to `CCN(CCN(C)C)C(=O)c1ccc(-c2cc3nccc(-c4ccc(OC5CCOCC5)c(C#N)c4)c3o2)cc1OC` [Compound A31, 4-{7-[3-cyano-4-(tetrahydro-pyran-4-yloxy)-phenyl]-furo[3,2-b]pyridin-2-yl}-N-(2-dimethylamino-ethyl)-N-ethyl-2-methoxy-benzamide], the IC50 (in assay [1]; on IKKε) was below 300 nM in each case.

On to `N#Cc1cc(-c2ccnc3cc(-c4ccc(C(=O)N5CCC(O)CC5)cc4F)oc23)ccc1OC1CCOCC1` [Compound A113], for which the IC50 (in assay [1]; at IKKε) was below 300 nM each time.

Turning to `CN(C)CCNC(=O)c1ccc(-c2cc3nccc(-c4ccc(OC5CCOCC5)c(C#N)c4)c3o2)cc1` [Compound A27, 4-{7-[3-cyano-4-(tetrahydro-pyran-4-yloxy)-phenyl]-furo[3,2-b]pyridin-2-yl}-N-(2-dimethylamino-ethyl)-benzamide], the IC50 (in assay [1]; on IKKε) was below 300 nM each time.

`COc1cc(-c2cc3nccc(-c4ccc(OC5CCOCC5)c(C#N)c4)c3o2)ccc1C(=O)NCCN1CCC(F)(F)CC1` [Compound A90]: the half-inhibitory concentration (IC50) (in assay [1]; on IKKε) was below 300 nM throughout.

For the compound `N#Cc1cc(-c2ccnc3cc(-c4ccc(N5CCOCC5)nc4)oc23)ccc1OC1CCOCC1` [Compound A56], the IC50 (in assay [1]; at IKKε) was below 300 nM each time.

Take `CN1CCN(C(=O)c2ccc(-c3cc4nccc(-c5ccc(N6CCOCC6)c(C#N)c5)c4o3)cc2)CC1` [Compound A76]: the IC50 (in assay [1]; on IKKε) was below 300 nM throughout.

In the case of `N#Cc1cc(-c2ccnc3cc(-c4cnn(CCN5CCOCC5)c4)oc23)ccc1OC1CCOCC1` [Compound A48], the half-inhibitory concentration (IC50) (in assay [1]; at IKKε) was below 300 nM each time.

On to `CN(CCO)C(=O)c1ccc(-c2cc3nccc(-c4ccc(OC5CCOCC5)c(C#N)c4)c3s2)cc1` [Compound A44], for which the IC50 (in assay [1]; at IKKε) was below 300 nM in each case.

For `COc1cc(-c2cc3nccc(-c4ccc(OC5CCOCC5)c(C#N)c4)c3o2)ccc1C(=O)N1CC[C@H](O)C1` [Compound A92], the IC50 (in assay [1]; at IKKε) was below 300 nM throughout.

Consider `COc1cccc(-c2cc3nccc(-c4ccc(OC5CCOCC5)c(C#N)c4)c3o2)c1` [Compound A6, 5-[2-(3-methoxy-phenyl)-furo[3,2-b]pyridin-7-yl]-2-(tetrahydro-pyran-4-yloxy)-benzonitrile], for which the IC50 (in assay [1]; at IKKε) was 300 to 3000 nM in each case.

As to `N#Cc1cc(-c2ccnc3cc(-c4ccc(C(=O)N5CCNCC5)cc4)oc23)ccc1OCC1CC1` [Compound A40], the IC50 (in assay [1]; at IKKε) was below 300 nM throughout.

For the compound `N#Cc1cc(-c2ccnc3cc(-c4ccc(C(=O)NCCC(F)(F)F)cc4)oc23)ccc1OC1CCOCC1` [Compound A85], the IC50 (in assay [1]; on IKKε) was 300 to 3000 nM each time.

Regarding `N#Cc1cc(-c2ccnc3cc(-c4ccc(C(=O)N5CCNCC5)cc4)oc23)ccc1OCC1CCC1` [Compound A38], the IC50 (in assay [1]; on IKKε) was below 300 nM throughout.

Regarding `COc1cc(C(=O)N(C)C)ccc1-c1cc2nccc(-c3ccc(OC4CCOCC4)c(C#N)c3)c2o1` [Compound A117], the IC50 (in assay [1]; on IKKε) was below 300 nM each time.
